# Measurements reported in patent publication US20200085791A1, “[(PHENYLSULFONYL)OCTAHYDRO-EPIMINOISOINDOL-YL](1H-1,2,3-TRIAZOL-5-YL)METHANONES” (Bayer Pharma Aktiengesellschaft, priority 2016, published 2020).
# Target: T1, recombinant human AKR1C3 (Aldo-keto reductase family 1 member C3) (Homo sapiens, UniProt P42330)
# T1 construct: GST (cleaved yes); made in house; host or cells: E. coli
# T1 sequence (P42330 1-323): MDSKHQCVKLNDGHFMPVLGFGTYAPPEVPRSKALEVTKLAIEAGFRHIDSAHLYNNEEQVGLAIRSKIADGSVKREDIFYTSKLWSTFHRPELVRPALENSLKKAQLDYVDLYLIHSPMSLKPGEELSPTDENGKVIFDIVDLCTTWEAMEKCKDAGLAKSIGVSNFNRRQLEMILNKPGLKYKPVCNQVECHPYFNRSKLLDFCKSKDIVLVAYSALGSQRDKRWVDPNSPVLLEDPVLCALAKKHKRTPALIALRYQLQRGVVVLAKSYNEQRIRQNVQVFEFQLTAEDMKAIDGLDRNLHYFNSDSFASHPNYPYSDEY
# Assay: In Vitro Assay 1: AKR1C3-inhibitory activity (Coumberone to Coumberol fluorescence assay)
# Assay type: biochemical
# Conditions: recombinant enzyme, Coumberone 0.3 μM, NADPH 10 μM, 15 min pre-incubation, 4-parameter fit; average or median values
# Procedure: In Vitro Assay 1: AKR1C3-Inhibitory Activity
# The AKR1C3-inhibitory activity of the substances of the present invention was measured in the AKR1C3 assay described in the paragraphs below.
# Essentially, the enzyme activity is measured by quantification of the Coumberol from Coumberone (Halim, M., Yee, D. J., and Sames, D., J. AM. CHEM. SOC. 130, 14123-14128 (2008) and Yee, D. J., Balsanek, V., Bauman, D. R., Penning, T. M., and Sames, D., Proc. Natl. Acad. Sci. USA 103, 13304-13309 (2006)). In this test, the increase of the highly fluorescent Coumberol by NADPH- (nicotinamide adenine dinucleotide phosphate)-dependent reduction of the non-fluorescent Coumberone by AKR1C3 can be determined.
# The enzyme used was recombinant human AKR1C3 (Aldo-keto reductase family 1 member C3) (GenBank Accession No. NM_003739). This was expressed in E. coli as GST (glutathione S transferase) fusion protein and purified by glutathione Sepharose affinity chromatography. The GST was removed by digestion with thrombin and subsequent size exclusion chromatography (Dufort, I., Rheault, P., Huang, X F., Soucy, P., and Luu-The, V., Endocrinology 140, 568-574 (1999)).
# For the assay, 50 nl of a 100-fold concentrated solution of the test substance in DMSO were pipetted into a black low-volume 384-well microtiter plate (Greiner Bio-One, Frickenhausen, Germany), 2.5 μl of a solution of AKR1C3 in assay buffer [50 mM potassium phosphate buffer pH 7, 1 mM DTT, 0.0022% (w/v) Pluronic F-127, 0.01% BSA (w/v) and protease inhibitor cocktail (Complete, EDTA-free Protease Inhibitor Cocktail from Roche)] were added and the mixture was incubated for 15 min to allow pre-binding of the substances to the enzyme prior to the enzyme reaction. The enzyme reaction was then started by addition of 2.5 μl of a solution of NADPH (20 μM→final concentration in 5 μl of assay volume is 10 μM) and Coumberone (0.6 μM→final concentration in 5 μl of assay volume is 0.3 μM) in assay buffer, and the resulting mixture was incubated at […] for the reaction time of typically 90 min. The concentration of the AKR1C3 and the reaction time was adapted to the respective activity of the enzyme preparation and adjusted such that the assay was carried out in the linear range.
# Typical AKR1C3 concentrations were in the region of 1 nM. The reaction was stopped by addition of 2.5 μl of a stop solution consisting of the inhibitor EM-1404 [F. Labrie et al. U.S. Pat. No. 6,541,463, 2003] (3 μM→final concentration in 7.5 μl of assay volume is 1 μM). The fluorescence of the Coumberole was then measured at 520 nm (excitation at 380 nm) using a suitable measuring instrument (Pherastar from BMG Labtechnologies). The intensity of the fluorescence was used as a measure of the amount of Coumberole formed and thus of the enzyme activity of AKR1C3. The data were normalized (enzyme reaction without inhibitor—0% inhibition; all other assay components, but no enzyme=100% inhibition).
row,IC50 [nM],SMILES
1,109,"O=C(c1cnn[nH]1)N1C[C@@H]2[C@H](C1)[C@H]1CC[C@@H]2N1S(=O)(=O)c1cccc2nsnc12 [Example 45, [(3aR,4R,7S,7aS)-8-(2,1,3-benzothiadiazol-4-ylsulfonyl)octahydro-2H-4,7-epiminoisoindol-2-yl](1H-1,2,3-triazol-5-yl)methanone]"
2,59,"O=C(c1cnn[nH]1)N1C[C@@H]2[C@H](C1)[C@H]1CC[C@@H]2N1S(=O)(=O)c1cccc2nonc12 [Example 46, [(3aR,4R,7S,7aS)-8-(2,1,3-benzoxadiazol-4-ylsulfonyl)octahydro-2H-4,7-epiminoisoindol-2-yl](1H-1,2,3-triazol-5-yl)methanone]"
3,85,"COc1ccc(Cl)cc1S(=O)(=O)N1[C@@H]2CC[C@H]1[C@@H]1CN(C(=O)c3cnn[nH]3)C[C@@H]12 [Example 47, {(3aR,4R,7S,7aS)-8-[(5-chloro-2-methoxyphenyl)sulfonyl]octahydro-2H-4,7-epiminoisoindol-2-yl}(1H-1,2,3-triazol-5-yl)methanone]"
4,213,"O=C(c1cnn[nH]1)N1C[C@@H]2[C@H](C1)[C@H]1CC[C@@H]2N1S(=O)(=O)c1ccc2nsnc2c1 [Example 48, [(3aR,4R,7S,7aS)-8-(2,1,3-benzothiadiazol-5-ylsulfonyl)octahydro-2H-4,7-epiminoisoindol-2-yl](1H-1,2,3-triazol-5-yl)methanone]"
5,148,"O=C(c1cnn[nH]1)N1C[C@@H]2[C@H](C1)[C@H]1CC[C@@H]2N1S(=O)(=O)c1ccc(F)c(F)c1F [Example 49, 1H-1,2,3-triazol-5-yl{(3aR,4R,7S,7aS)-8-[(2,3,4-trifluorophenyl)sulfonyl]octahydro-2H-4,7-epiminoisoindol-2-yl}methanone]"
6,999,"N#Cc1cc(S(=O)(=O)N2[C@@H]3CC[C@H]2[C@@H]2CN(C(=O)c4cnn[nH]4)C[C@@H]23)ccc1F [Example 50, 2-fluoro-5-{[(3aR,4R,7S,7aS)-2-(1H-1,2,3-triazol-5-ylcarbonyl)octahydro-1H-4,7-epiminoisoindol-8-yl]sulfonyl}benzonitrile]"
7,3,"O=C(c1cnn[nH]1)N1C[C@@H]2[C@H](C1)[C@H]1CC[C@@H]2N1S(=O)(=O)c1cc(Cl)ccc1F [Example 51, {(3aR,4R,7S,7aS)-8-[(5-chloro-2-fluorophenyl)sulfonyl]octahydro-2H-4,7-epiminoisoindol-2-yl}(1H-1,2,3-triazol-5-yl)methanone]"
8,21,"O=C(c1cnn[nH]1)N1C[C@@H]2[C@H](C1)[C@H]1CC[C@@H]2N1S(=O)(=O)c1cc(F)c(F)cc1F [Example 52, 1H-1,2,3-triazol-5-yl{(3aR,4R,7S,7aS)-8-[(2,4,5-trifluorophenyl)sulfonyl]octahydro-2H-4,7-epiminoisoindol-2-yl}methanone]"
9,2,"Cc1ccc(Cl)cc1S(=O)(=O)N1[C@@H]2CC[C@H]1[C@@H]1CN(C(=O)c3cnn[nH]3)C[C@@H]12 [Example 53, {(3aR,4R,7S,7aS)-8-[(5-chloro-2-methylphenyl)sulfonyl]octahydro-2H-4,7-epiminoisoindol-2-yl}(1H-1,2,3-triazol-5-yl)methanone]"
10,13,"COc1ccccc1S(=O)(=O)N1[C@@H]2CC[C@H]1[C@@H]1CN(C(=O)c3cnn[nH]3)C[C@@H]12 [Example 54, {(3aR,4R,7S,7aS)-8-[(2-methoxyphenyl)sulfonyl]octahydro-2H-4,7-epiminoisoindol-2-yl}(1H-1,2,3-triazol-5-yl)methanone]"
11,4,"Cc1ccc(Br)cc1S(=O)(=O)N1[C@@H]2CC[C@H]1[C@@H]1CN(C(=O)c3cnn[nH]3)C[C@@H]12 [Example 55, {(3aR,4R,7S,7aS)-8-[(5-bromo-2-methylphenyl)sulfonyl]octahydro-2H-4,7-epiminoisoindol-2-yl}(1H-1,2,3-triazol-5-yl)methanone]"
12,798,"COC(=O)c1cccc(S(=O)(=O)N2[C@@H]3CC[C@H]2[C@@H]2CN(C(=O)c4cnn[nH]4)C[C@@H]23)c1 [Example 56, methyl 3-{[(3aR,4R,7S,7aS)-2-(1H-1,2,3-triazol-5-ylcarbonyl)octahydro-1H-4,7-epiminoisoindol-8-yl]sulfonyl}benzoate]"
13,267,"O=C(c1cnn[nH]1)N1C[C@@H]2[C@H](C1)[C@H]1CC[C@@H]2N1S(=O)(=O)c1ccc2c(c1)OCO2 [Example 57, [(3aR,4R,7S,7aS)-8-(1,3-benzodioxol-5-ylsulfonyl)octahydro-2H-4,7-epiminoisoindol-2-yl](1H-1,2,3-triazol-5-yl)methanone]"
14,110,"COc1cc(C)ccc1S(=O)(=O)N1[C@@H]2CC[C@H]1[C@@H]1CN(C(=O)c3cnn[nH]3)C[C@@H]12 [Example 58, {(3aR,4R,7S,7aS)-8-[(2-methoxy-4-methylphenyl)sulfonyl]octahydro-2H-4,7-epiminoisoindol-2-yl}(1H-1,2,3-triazol-5-yl)methanone]"
15,501,"NC(=O)c1cccc(S(=O)(=O)N2[C@@H]3CC[C@H]2[C@@H]2CN(C(=O)c4cnn[nH]4)C[C@@H]23)c1 [Example 60, 3-{[(3aR,4R,7S,7aS)-2-(1H-1,2,3-triazol-5-ylcarbonyl)octahydro-1H-4,7-epiminoisoindol-8-yl]sulfonyl}benzamide]"
16,84,"N#Cc1c(Cl)cccc1S(=O)(=O)N1[C@@H]2CC[C@H]1[C@@H]1CN(C(=O)c3cnn[nH]3)C[C@@H]12 [Example 61, 2-chloro-6-{[(3aR,4R,7S,7aS)-2-(1H-1,2,3-triazol-5-ylcarbonyl)octahydro-1H-4,7-epiminoisoindol-8-yl]sulfonyl}benzonitrile]"
17,78,"O=C(c1cnn[nH]1)N1C[C@@H]2[C@H](C1)[C@H]1CC[C@@H]2N1S(=O)(=O)c1cccc2c1OCC2 [Example 62, [(3aR,4R,7S,7aS)-8-(2,3-dihydro-1-benzofuran-7-ylsulfonyl)octahydro-2H-4,7-epiminoisoindol-2-yl](1H-1,2,3-triazol-5-yl)methanone]"
18,2,"O=C(c1cnn[nH]1)N1C[C@@H]2[C@H](C1)[C@H]1CC[C@@H]2N1S(=O)(=O)c1cc(F)ccc1Cl [Example 63, {(3aR,4R,7S,7aS)-8-[(2-chloro-5-fluorophenyl)sulfonyl]octahydro-2H-4,7-epiminoisoindol-2-yl}(1H-1,2,3-triazol-5-yl)methanone]"
19,12,"O=C(c1cnn[nH]1)N1C[C@@H]2[C@H](C1)[C@H]1CC[C@@H]2N1S(=O)(=O)c1cccc(F)c1Cl [Example 64, {(3aR,4R,7S,7aS)-8-[(2-chloro-3-fluorophenyl)sulfonyl]octahydro-2H-4,7-epiminoisoindol-2-yl}(1H-1,2,3-triazol-5-yl)methanone]"
20,45,"COc1cc(F)ccc1S(=O)(=O)N1[C@@H]2CC[C@H]1[C@@H]1CN(C(=O)c3cnn[nH]3)C[C@@H]12 [Example 65, {(3aR,4R,7S,7aS)-8-[(4-fluoro-2-methoxyphenyl)sulfonyl]octahydro-2H-4,7-epiminoisoindol-2-yl}(1H-1,2,3-triazol-5-yl)methanone]"
21,625,"COc1ccc(C#N)cc1S(=O)(=O)N1[C@@H]2CC[C@H]1[C@@H]1CN(C(=O)c3cnn[nH]3)C[C@@H]12 [Example 66, 4-methoxy-3-{[(3aR,4R,7S,7aS)-2-(1H-1,2,3-triazol-5-ylcarbonyl)octahydro-1H-4,7-epiminoisoindol-8-yl]sulfonyl}benzonitrile]"
22,33,"N#Cc1ccc(Cl)c(S(=O)(=O)N2[C@@H]3CC[C@H]2[C@@H]2CN(C(=O)c4cnn[nH]4)C[C@@H]23)c1 [Example 67, 4-chloro-3-{[(3aR,4R,7S,7aS)-2-(1H-1,2,3-triazol-5-ylcarbonyl)octahydro-1H-4,7-epiminoisoindol-8-yl]sulfonyl}benzonitrile]"
